Assay results as given in patent US9694050B2, “THY1 (CD90) as a novel therapy to control adipose tissue accumulation” (University of Rochester, priority 2012, dated 2017).

How the values were obtained:
[1] = tested on: human pre-adipocyte fibroblasts; experiment: Adipogenesis of human pre-adipocyte fibroblasts in adipogenic medium (Thy1 siRNA, SU6656); assay type: cell-based
Description: 3T3-L1 cells or primary fibroblasts were cultured to confluence before addition of the adipogenic medium. Cells were treated with an adipogenic medium containing 0.5 mM 3-isobutyl-1-methylxanthine, 0.25 μM dexamethasone, and 1 μg/ml insulin (all three from Sigma Aldrich, St. Louis, Mo.), 2 μM rosiglitazone (Cayman) for two days. After two days medium was replaced with dexamethasone, insulin and rosiglitazone for another 5-8 days. Media was replaced every 2 days through the duration of the experiment. After differentiation cells were analyzed for lipid accumulation and adipogenesis by Oil-red-O (Sigma Aldrich, St. Louis, Mo.) staining and AdipoRed (Cayman) staining as described previously. Lehmann et al., “Novel Anti-adipogenic Activity Produced by Human Fibroblasts,” Am J Physiol Cell Physiol 299(3):C672-81 (2010), which is hereby incorporated by reference in its entirety.
5-8×10^4 or 1×10^5 cells were seeded into 24 well or 6 well cell culture plates (Corning) and subsequently were transiently transfected with 50-200 nM of siRNA (Ambion) using Lipofectamine 2000 (Invitrogen) as the transfection reagent and following the manufacture's protocol. The cells were incubated with siRNA specific for Thy1 specific or a corresponding non-specific control siRNA for 3-4 days before the cells were subjected to adipogenic differentiation experiments as described above. At the start of the adipogenic differentiation experiment, the cells were again transiently transfected with 100 nM Thy1-specific or control siRNA.
Thy1 specific or control siRNA was introduced into human pre-adipocyte fibroblasts using Lipofectamine 2000. Fibroblasts were then treated with an adipogenic medium and adipogenesis was measured by visual inspection of lipid droplets, FABP4 expression and lipid accumulation. Total Thy1 protein expression and Thy1 surface expression were analyzed by western blot and flow cytometry, respectively. […] Cell images were captured to show the presence of lipid droplets in fibroblasts treated with adipogenic medium, and are shown in FIG. 12B. […]

Thy1 [2] = experiment: Thy1 expression in hMSCs treated with obesogens (qPCR, flow cytometry); assay type: cell-based, human
Description: In particular, hMSCs were induced to adipocytes with a rosiglitazone cocktail (adipogenic) or cocktail containing the putative obesogens BPA (1 μM), TBBPA (5 μM), or TBT (100 nM). […] The obesogen doses selected are based on literature and represent concentrations proposed to be found in human tissues. Roos et al., “Circulating Levels of Persistent Organic Pollutants in Relation to Visceral and Subcutaneous Adipose Tissue by Abdominal MRI,” Obesity (Silver Spring) (2012) and Antizar-Ladislao, B, “Environmental Levels, Toxicity and Human Exposure to Tributyltin (TBT)-Contaminated Marine Environment. A Review,” Environ Int 34(2):292-308 (2008), each of which is hereby incorporated by reference in its entirety. As noted above, the cells were cultured in adipogenic medium containing rosiglitazone, a PPARγ ligand that promotes adipogenesis and obesity, and the noted putative obesogens.
qPCR analysis of the mRNA levels of Thy1 and the adipogenic marker FABP4 was conducted. […] The same samples as in FIG. 4A were used to measure Thy1 mRNA levels by qPCR. […] Thy1 and FABP4 levels were normalized to TBP mRNA levels (control gene).
hMSCs were also treated with vehicle (DMSO), 20 uM TBBPA, or 10 uM rosiglitazone for 72 hrs, harvested and stained with a fluorescent anti-Thy1 antibody for analysis of Thy1 by flow cytometry.

Thy1 [3] = experiment: Thy1 expression in mouse MSCs cultured with obesogens (flow cytometry, western blotting); assay type: cell-based; details: 96 hrs; for Thy1, western blotting: concentrations in figure
Description: Mouse MSCs were cultured with obesogens for 96 hrs, harvested, and analyzed for Thy1 expression by flow cytometry or western blotting.

PPARγ = experiment: Western blot for PPARγ protein in 3T3-L1 cells; assay type: cell-based, mouse; details: expression of Thy1 in 3T3-L1 preadipocyte fibroblasts
Description: Orbital fibroblasts from two individual human donors were separated into Thy1^− and Thy1+ subsets. Cells were harvested and analyzed by western blotting for PPARγ and actin (loading control). […] In addition, 3T3-L1 cells were transduced with control or human Thy1− encoding lentiviral (Lv) particles.
To test how Thy1 affects PPARγ, it was first considered whether Thy1 would down-regulate the expression of PPARγ protein. However, two different strains of human TED orbital fibroblasts, sorted into Thy1+ or Thy1^− subsets, expressed similar levels of PPARγ (FIG. 15A). […] Thus, other ways that Thy1 could influence the function of PPARγ were considered, as described below.

Fyn = experiment: Western blot for phospho-STAT5 (Fyn mediated phosphorylation); assay type: cell-based, human; details: Thy1 expression
[4] = Diet induced obesity in mice on a high fat diet, soluble Thy1 injected; assay type: in vivo, mouse; details: high fat diet (60% kcals from fat), minimum of 8 weeks, 0.2 or 0.4 mg/kg intravenous or subcutaneous
Description: Milligram quantities of soluble Thy1 will be injected into mice receiving a high fat (60% kcals from fat) diet.
Mice fed a high fat diet and treated as in Table 2 will be weighed weekly for the duration of the experiment (minimum of 8 weeks). Following the study, mice will be sacked for fat depot quantification, histologic analysis and fat tissue will be analyzed by western blot for the adipogenic markers FABP4, C/EBPα, Fyn, and phospho-Fyn. Serum samples will also be acquired for analysis of Thy1, adiponectin and glucose levels.

Erk1/2 = experiment: Western blot for phospho-Erk1/2 in 3T3-L1 cells; assay type: cell-based, mouse; details: Thy1 expressed in 3T3-L1 cells
Description: 3T3-L1 cells infected with a control or Thy1-expressing lentivirus (LV) were treated with 10 nM insulin-like growth factor (IGF)-1 for 0, 5, or 10 minutes. Cells were treated as described, then whole cell lysates were harvested and analyzed by western blot for phospho-Erk1/2 and GAPDH expression (FIG. 18A). Western blot images were analyzed by densitometry and phospho-Erk1/2 levels were normalized to GAPDH to adjust for total protein variations (FIG. 18B).
PPARγ phosphorylation at serine 82 (S82) inhibits ligand binding and severely reduces its ability to promote adipogenesis. […] To investigate if Thy1 regulates the Erk pathway, Thy1 was expressed in 3T3-L1 cells and the activity of Erk1/2 (which corresponds to phospho-Erk) was monitored by western blotting (see FIGS. 18A and 18B). […]

human stem cells = experiment: Adipogenesis of human stem cells / preadipocytes given a proadipogenic cocktail; assay type: cell-based
Description: Thy1 (or Thy-1, also termed CD90) is an N-glycosylated, glycophosphatidylinositol (GPI)-anchored membrane protein that was originally identified as a surface marker on mouse T cells and thymocytes. Thy1 is a surface marker of unknown function that is expressed on some stem cells and some fibroblasts. While Thy1 was discovered more than 35 years ago, its molecular function remains a mystery. The inventors of the present application have discovered that Thy1 is more than a surface marker; rather, it can control the fate of cells by preventing adipogenesis. […] Similarly, deliberate genetic over-expression of Thy1 has the same effect, preventing cells from becoming adipocytes.

[5] = induced to differentiate into adipocytes
[6] = human and mouse mesenchymal stem cells

CN(C)S(=O)(=O)c1ccc2c(c1)/C(=C/c1cc3c([nH]1)CCCC3)C(=O)N2 [SU6656]
adipogenic effect of Thy1 siRNA (FABP4 mRNA, lipid accumulation) ([1]; Thy1 siRNA followed by adipocyte induction): ablated | FABP4 protein expression, % of control, western blot [1, 5]: 30% | lipid accumulation, % of control [1, 5]: 55%

CC(C)(c1cc(Br)c(O)c(Br)c1)c1cc(Br)c(O)c(Br)c1 [TBBPA, tetrabromobisphenol-A]
Thy1 expression (Thy1 [2]; MSCs treated with obesogens): reduced | surface expression of Thy1, flow cytometry (Thy1 [2]; hMSCs, 20 uM, 72 hrs, vs vehicle (DMSO)): decreased | Thy1 expression (Thy1 [2]; [6]): dramatically reduced | Thy1 surface expression, Mean Fluorescent Intensity (Thy1 [3]; 5 μM): dramatic reduction | Thy1, western blotting (Thy1 [3]): reduction

CCC[CH2][Sn]([CH2]CCC)[CH2]CCC [TBT, tributlytin]
Thy1 expression (Thy1 [2]; MSCs treated with obesogens): reduced | Thy1 expression (Thy1 [2]; [6]): dramatically reduced | Thy1, western blotting (Thy1 [3]): reduction

Thy1: N-glycosylated, GPI-anchored membrane protein; human Thy1 SEQ ID NO:1; soluble form lacks the GPI anchor
PPARγ protein levels (PPARγ): did not alter | phospho-STAT5 levels, western blotting (Fyn): reduces | fat accumulation [4]: significantly less fat accumulation | weight gain [4]: significantly less weight | increase of Erk1/2 phosphorylation compared to control 3T3-L1 cells (Erk1/2): greater than 3 fold | human stem cell adipogenesis (human stem cells): blunts | becoming fat cells (human stem cells; human and mouse preadipocytes and primary human stem cells, proadipogenic cocktail containing a PPARγ ligand): prevent
